In the assay the target is T1, human FAAH (Homo sapiens, UniProt O00519).
T1 construct: host or cells: COS-7 cells, transient transfection (FuGENE 6); 13,000 g membrane fraction solubilised in 1% Triton X-100
T1 sequence (O00519 1-579): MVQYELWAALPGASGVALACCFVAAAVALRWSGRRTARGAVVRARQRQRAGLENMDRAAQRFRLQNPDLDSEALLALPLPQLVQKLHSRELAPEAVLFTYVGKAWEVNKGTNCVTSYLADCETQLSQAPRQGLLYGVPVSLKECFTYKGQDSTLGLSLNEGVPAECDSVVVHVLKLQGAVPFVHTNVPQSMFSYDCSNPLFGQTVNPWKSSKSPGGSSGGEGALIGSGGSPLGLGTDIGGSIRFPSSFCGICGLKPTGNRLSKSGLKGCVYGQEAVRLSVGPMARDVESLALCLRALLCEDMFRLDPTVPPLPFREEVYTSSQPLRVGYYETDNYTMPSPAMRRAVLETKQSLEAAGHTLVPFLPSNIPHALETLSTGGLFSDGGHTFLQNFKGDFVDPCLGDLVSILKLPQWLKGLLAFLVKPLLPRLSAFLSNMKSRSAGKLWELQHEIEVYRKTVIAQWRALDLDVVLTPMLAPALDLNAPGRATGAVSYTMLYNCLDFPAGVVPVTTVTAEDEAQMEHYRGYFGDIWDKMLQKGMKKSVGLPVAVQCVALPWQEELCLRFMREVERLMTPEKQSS
Nature of the assay: Human FAAH biochemical inhibition assay (AMC arachidonoyl amide fluorescence). The protocol:
Exemplary compounds are set forth in the Examples provided below. Compounds were assayed as inhibitors of human FAAH using the method described in detail in Example 286.
The following assays may be used to determine the inhibition of FAAH by the compounds of the present invention: (1) a fluorescence-based assay for fatty acid amide hydrolase compatible with high-throughput screening as described in Manjunath et al., Analytical Biochemistry (2005) 343:143-151; and (2) a high-throughput screening for the discovery of inhibitors of fatty acid amide hydrolase using a microsome-based fluorescent assay. Wang et al., Biomolecular Screening (2006) 1-9.
COS-7 cells were split the day before, 1:5 into 150 mm×25 mm cell culture dishes (Corning Inc., Cat. No. 430599). Transient transfection took place at 30-40% confluency according to FuGENE 6 Transfection Reagent (Roche, Cat. No. 11814 443 001).
The FuGENE transfection 6 reagent (45 uL) was added to 1410 μL of media (DMEM, serum free without pen/strep) in a 15 mL conical tube and incubated at room temp for 5 minutes, followed by the addition of FAAH plasmid DNA (15 μg) (OriGene Cat. No. TC119221, Genbank Accession No. NM_001441.1, 0.67 ug/uL) and a further incubation of 15 minutes at room temperature. The resulting solution was added into one dish of 30-40% confluent COS-7 cells in a drop-wise manner. The COS-7 cell dish was subsequently incubated for 48 hours. The cells are then harvested.
Media was aspirated from the dishes and the cells rinsed with 10 mL PBS. The PBS was removed and 3 mL of PBS added to the dish. The dish was scraped to resuspend the cells, and the subsequent cell suspension collected into a 15 mL conical tube. The cells were pelleted by centrifugation at 1200 rpm for 5 minutes in a bench top centrifuge. PBS was removed and the cell pellet snap frozen in liquid nitrogen and stored at −80° C.
COS-7 Cells—FAAH Purification: • (1) Fractionation: Frozen cell pellets from transient transfections were thawed on ice and resuspended in 12.5 mM Hepes pH 8.0, 100 mM NaCl, 1 mM EDTA (10 mL/0.2 g cell pellet). The pellets were dounce homogenized and then sonicated to produce cell extract. The cell extract was subsequently centrifuged at 1000 g to remove cellular debris. The pellet was discarded and the supernatant centrifuged at 13,000 g for 20 minutes. The pellet contained membrane bound FAAH. The supernatant was discarded and the pellet resolubilized. • (2) Re-solubilization: The fraction of interest, (13,000 g, membrane fraction) was re-suspended in 2.3 mL re-suspension buffer (20 mM Hepes pH 7.8, 10% v/v Glycerol, 1 mM EDTA, 1% Triton X-100) and the sample incubated on ice for 1 hour and then centrifuged to remove any particulate matter. The supernatant containing solubilized human FAAH was aliquoted and snap frozen in liquid nitrogen and stored at −80° C. until use. • (3) Characterization: Protein Concentration determined by Bradford assay. • SDS gel and Western blot to confirm presence of FAAH • FAAH activity assay • Km determination—96-well assay • Linear dependence—96-well assay • Standard compound Ki determination—384-well assay
Rat FAAH biochemical assays were carried out in a 96 well flat bottom black non-treated polystyrene plates (Corning Costar Catalogue #3915). FAAH reaction buffer: 50 mM Hepes (pH 7.5), 1 mM EDTA, 0.2% Triton X-100. FAAH substrate—AMC Arachidonoyl Amide (Cayman Chemicals Company, Catalog #10005098). The reaction was read in an Envision microtiter plate reader [Excitation filter 355 nm (40 nm bandpass); Emmision filter 460 nm (25 nm bandpass)]. The raw fluorescence was plotted on the y axis and the inhibitor concentration on the x axis to give a dose response inhibition curve. The data was fitted to a single site competitive inhibition equation, fixing the Km for the rat and human enzyme to 12 μM and 9 μM respectively. […]

[1] abbreviates: Table A, read-out: Activity (Ki) of other boronic acids tested, Table A.
The mark [2] stands for this setting: class given in each Example, read-out: Activity (Ki, inhibition of human FAAH).

Among the data in patent US8957049B2, “Inhibitors of fatty acid amide hydrolase” (Infinity Pharmaceuticals, Inc., priority 2008, dated 2015) are Ki values, retold here.

Read-outs that look alike come from different tables or passages of the source.

For the compound `OB(O)c1ccc(C(F)(F)F)nc1`, the inhibition constant Ki – broadly, the equilibrium dissociation constant of an inhibitor or competing ligand from its target – under setting [1] lay within 0.1 to 1 µM.
For the compound `Cc1cc(B2OC(C)(C)C(C)(C)O2)cnc1N1CCN(C)CC1`, the inhibition constant Ki under setting [1] is over 1 µM.
For `Cc1cc(B(O)O)cnc1N1CCOCC1`, under setting [1], the Ki lay in the range of 0.1 to 1 µM.
With `OB(O)c1ccc(-c2ccc(F)cc2)nc1`, under setting [1], the Ki fell in the range of 0.01 to 0.1 µM.
As to `CC(=O)NCc1ccc(B(O)O)cc1`, the Ki under setting [1] is over 1 µM.
In the case of `CC(=O)Nc1ccc(B(O)O)cc1`, the inhibition constant Ki under setting [1] was over 1 µM.
Regarding `COC(=O)Nc1ccc(B(O)O)cc1`, the Ki under setting [1] is over 1 µM.
Turning to `O=C(Nc1ccccn1)c1ccc(B(O)O)cc1`, under setting [1], the inhibition constant Ki lay within 0.01 to 0.1 µM.
With `COCCNC(=O)c1ccc(B(O)O)cc1`, the inhibitory constant (Ki) under setting [1] was in the range of 0.1 to 1 µM.
Regarding `O=S(=O)(c1ccc(B(O)O)cc1)n1cccc1`, under setting [1], the Ki lay within 0.01 to 0.1 µM.
Regarding `O=C(O)CCc1ccc(B(O)O)cc1`, under setting [1], the Ki was over 1 µM.
Still for that read-out and setting: the value for `OB(O)c1ccc(OCCn2ccnc2)cc1` was 0.1 to 1 µM; that for `CCOC(=O)COc1ccc(B(O)O)cc1` was 0.1 to 1 µM; that for `OCCCc1ccc(B(O)O)cc1` was 0.1 to 1 µM.
With `O=C(NCCCO)c1ccc(B(O)O)cc1`, under setting [1], the Ki is over 1 µM.
With `NNC(=O)CCc1ccc(B(O)O)cc1`, the inhibitory constant (Ki) under setting [1] lay within 0.1 to 1 µM.
For `OB(O)c1ccc(-c2ncc(-c3ccccc3)o2)cc1F` [Compound 1], the inhibition constant (Ki) under setting [2] is 0.01 to 0.1 µM.
Take `OB(O)c1ccc(-c2ncc(-c3ccccc3)o2)cc1` [Compound 2]: under setting [2], the Ki was 0.01 to 0.1 µM.
Consider `OB(O)c1ccc(-c2ncc(-c3ccccc3)s2)cc1F` [Compound 3], for which the inhibitory constant (Ki) under setting [2] is over 1 µM.
Consider `OB(O)c1ccc(-c2nc(-c3ccccc3)c[nH]2)cc1F` [Compound 7], for which, under setting [2], the Ki is over 1 µM.
On to `OB(O)c1ccc(-c2nc(CCc3ccccc3)c(-c3ccccc3)s2)cc1` [Compound 8], for which the inhibition constant (Ki) under setting [2] is over 1 µM.
Turning to `CCCCCc1nnc(-c2ccc(B(O)O)cn2)o1` [Compound 9], the Ki under setting [2] is at most 0.01 µM.
On to `O=C1CCCN1CCc1nnc(-c2ccc(B(O)O)cc2)o1` [Compound 10], for which the Ki under setting [2] lay in the range of 0.1 to 1 µM.
With `Cc1nnc(-c2cc(C(F)(F)F)ccc2B(O)O)o1` [Compound 11], the inhibition constant (Ki) under setting [2] fell in the range of 0.1 to 1 µM.
Consider `OB(O)c1ccc(-c2nnc(-c3ccccc3)o2)nc1` [Compound 12], for which the Ki under setting [2] is 0.01 to 0.1 µM.
For the compound `CCCc1nnc(-c2ccccc2B(O)O)o1` [Compound 13], the inhibition constant (Ki) under setting [2] was over 1 µM.
Turning to `CCCc1nnc(-c2cc(OCCc3ccccc3)ccc2B(O)O)o1` [Compound 17], under setting [2], the inhibitory constant (Ki) was at most 0.01 µM.
As to `OB(O)c1ccc(OCCc2ccccc2)cc1-c1nnc(-c2ccco2)o1` [Compound 18], under setting [2], the inhibition constant Ki was at most 0.01 µM.
On to `Cc1nnc(-c2cc(OCCc3ccccc3)ccc2B(O)O)o1` [Compound 19], for which the Ki under setting [2] was at most 0.01 µM.
On to `OB(O)c1ccc(-c2nnc(CCC(F)(F)C(F)(F)F)o2)cc1` [Compound 20], for which, under setting [2], the inhibitory constant (Ki) was at most 0.01 µM.
Turning to `OB(O)c1ccc(-c2nnc(-c3cccnc3)o2)cc1` [Compound 21], the inhibitory constant (Ki) under setting [2] is at most 0.01 µM.
As for `CCCc1nnc(-c2ccc(F)cc2B(O)O)o1` [Compound 22], the Ki under setting [2] is over 1 µM.
As to `Cc1nc(Cc2nnc(-c3ccc(B(O)O)cc3)o2)cs1` [Compound 23], the inhibitory constant (Ki) under setting [2] was in the range of 0.01 to 0.1 µM.
In the case of `CCCc1nc(-c2ccc(B(O)O)cc2)no1` [Compound 24], under setting [2], the Ki is at most 0.01 µM.
Regarding `CCC/C=C/c1nnc(-c2ccc(B(O)O)cc2)o1` [Compound 25], the Ki under setting [2] is at most 0.01 µM.
Still for that read-out and setting: the value for `CCCCCc1nnc(-c2ccc(B(O)O)c(F)c2)o1` [Compound 26] was at most 0.01 µM.
Still for that read-out and setting: the same measure for `CCCCCc1nnc(-c2cc(B(O)O)cs2)o1` [Compound 27]: at most 0.01 µM; for `Cc1nnc(/C=C/c2ccccc2B(O)O)o1` [Compound 28]: 0.1 to 1 µM; for `CCCCCc1nnc(-c2ccc(B(O)O)cc2Cl)o1` [Compound 29]: at most 0.01 µM.
In the case of `CCCCCc1nnc(-c2ccc(B(O)O)cc2)o1` [Compound 30], the inhibition constant Ki under setting [2] is at most 0.01 µM.
Take `OB(O)c1ccccc1-c1nnc(-c2ccccc2)o1` [Compound 31]: under setting [2], the Ki was over 1 µM.
With `CCC(C)CCc1nnc(-c2ccc(B(O)O)cc2)o1` (stereo not shown) [Compound 32], under setting [2], the inhibitory constant (Ki) is at most 0.01 µM.
In the case of `OB(O)c1ccc(-c2nnc(CCC3CCCC3)o2)cc1` [Compound 33], under setting [2], the inhibition constant (Ki) is at most 0.01 µM.
Turning to `CCCCC(C)c1nnc(-c2ccc(B(O)O)cc2)o1` (stereo not shown) [Compound 34], under setting [2], the Ki was at most 0.01 µM.
Regarding `OB(O)c1ccc(-c2nnc(CC3CCCC3)o2)cc1` [Compound 35], the inhibition constant Ki under setting [2] was at most 0.01 µM.
With `OB(O)c1ccc(-c2nnc(CCC3CCCCC3)o2)cc1` [Compound 36], under setting [2], the Ki was at most 0.01 µM.
For `CCCCCCc1nnc(-c2ccc(B(O)O)cc2)o1` [Compound 37], the inhibition constant Ki under setting [2] was at most 0.01 µM.
For the compound `CC(C)CCCc1nnc(-c2ccc(B(O)O)cc2)o1` [Compound 38], the Ki under setting [2] was at most 0.01 µM.
As to `CCCc1nnc(-c2ccc(B(O)O)cc2)o1` [Compound 39], the inhibition constant Ki under setting [2] is at most 0.01 µM.
On to `OB(O)c1ccc(-c2nnc(CCCC(F)(F)F)o2)cc1` [Compound 40], for which the Ki under setting [2] was at most 0.01 µM.
For the compound `OB(O)c1ccc(-c2nnc(-c3cncc(F)c3)o2)cc1` [Compound 41], under setting [2], the Ki was 0.01 to 0.1 µM.
With `CCCCc1nnc(-c2ccc(B(O)O)cc2)o1` [Compound 42], under setting [2], the inhibitory constant (Ki) is at most 0.01 µM.
The same measure, in the same setting: the value for `OB(O)c1ccc(-c2nnc(-c3cccc4c3OCCO4)o2)cc1` [Compound 43] was at most 0.01 µM; that for `COc1cccc(-c2nnc(-c3ccc(B(O)O)cc3)o2)c1OC` [Compound 44] was at most 0.01 µM.
Take `OB(O)c1ccc(-c2nnc(-c3ccc4c(c3)OCO4)o2)cc1` [Compound 45]: the inhibition constant (Ki) under setting [2] was at most 0.01 µM.
For `OB(O)c1ccc(-c2nnc(-c3cccc4c3OCC4)o2)cc1` [Compound 46], the inhibition constant (Ki) under setting [2] is at most 0.01 µM.
In the case of `OB(O)c1ccc(-c2nnc(-c3cccc(C(F)(F)F)c3)o2)cc1` [Compound 47], under setting [2], the Ki was at most 0.01 µM.
Take `OB(O)c1ccc(-c2nnc(-c3cccc(C(F)(F)F)c3)s2)cc1` [Compound 48]: the Ki under setting [2] is at most 0.01 µM.
With `OB(O)c1ccc(-c2nnc(-c3cccnc3)s2)cc1` [Compound 49], the inhibition constant (Ki) under setting [2] is at most 0.01 µM.
Regarding `OB(O)c1ccc(-c2nnc(-c3cccc4c3OCO4)s2)cc1` [Compound 50], under setting [2], the Ki was at most 0.01 µM.
Consider `Cn1ccc2c(-c3nnc(-c4ccc(B(O)O)cc4)o3)cccc21` [Compound 51], for which the Ki under setting [2] was at most 0.01 µM.
Still for that read-out and setting: the value for `OB(O)c1ccc(-c2nnc(-c3cccc4c3OC(F)(F)O4)o2)cc1` [Compound 52] was at most 0.01 µM.
Consider `OB(O)c1ccc(-c2nnc(-c3cccc4c3OCO4)o2)cc1` [Compound 53], for which the Ki under setting [2] is at most 0.01 µM.
On the same count and under the same terms, the same measure for `Cn1cncc1-c1nnc(-c2ccc(B(O)O)cc2)o1` [Compound 54]: 0.01 to 0.1 µM.
